Laboratory results: ChEMBL document CHEMBL1126373, “HIV and reverse transcriptase inhibition by tannins” (Bioorg Med Chem Lett, 1992)

How the values were obtained:
[1] = tested on: Human immunodeficiency virus 1; test: Inhibition against HIV replication in cell culture at 20 ug/mL; format: functional; settings: Human immunodeficiency virus 1
[2] = tested on: Human immunodeficiency virus 1; test: Anti-HIV activity in cell culture assay expressed as IC50 values.; format: functional, organism-based
[3] = tested on: Human immunodeficiency virus 1; test: Anti-HIV activity in cell culture assay expressed as EC50 values.; format: functional, organism-based; settings: Human immunodeficiency virus 1
[4] = tested on: Human immunodeficiency virus 1; test: Therapeutic index was determined; settings: read-out: Therapeutic index
[5] = biological target: Human immunodeficiency virus type 1 reverse transcriptase (Human immunodeficiency virus 1) (UniProt Q72547); test: Inhibition against HIV- reverse transcriptase in cell culture at 20 ug/mL

Row | SMILES | inhibition at 20 µg/mL [1] [%] | IC50 ([2]; Human immunodeficiency virus 1) [µM] | EC50 [3] [µM] | selectivity ratio [4] | inhibition [5] [%] | IC50 [2] [µM]
1 | O=C1OCC2OC(=O)c3cc(O)c(O)c(O)c3-c3c(O)c(O)c(O)c4c3C(=O)OC(C2OC(=O)c2cc(O)c(O)c(O)c2-c2c1cc(O)c(O)c2O)C1OC(=O)c2c-4c(O)c(O)c(O)c2[C@@H]1[C@@]1(O)O[C@@H](CO)[C@@H](O)[C@H]1O (stereo partly specified) | 35 | 15 | 35 | 0.4 | 27 | 
2 | O=C1O[C@H]2[C@H](OC(=O)c3cc(O)c(O)c(O)c3)[C@@H](OC(=O)c3cc(O)c(O)c4c3[C@@H]3C1=CC(=O)C(O)(O)C3(O)O4)[C@H](OC(=O)c1cc(O)c(O)c(O)c1)O[C@@H]2COC(=O)c1cc(O)c(O)c(O)c1 (stereo partly specified) [TERCHEBIN] | 50 | 40 | 21 | 1.9 | 13 | 
3 | O=C(O[C@@H]1[C@@H](c2c(O)cc(O)c3c2O[C@H](c2ccc(O)c(O)c2)[C@H](OC(=O)c2cc(O)c(O)c(O)c2)C3)c2c(O)cc(O)c([C@H]3c4c(O)cc(O)cc4O[C@H](c4ccc(O)c(O)c4)[C@@H]3OC(=O)c3cc(O)c(O)c(O)c3)c2O[C@@H]1c1ccc(O)c(O)c1)c1cc(O)c(O)c(O)c1 | 47 | > 25 | 17 | > 1.5 | 13 | 
4 | CC1(C)CC[C@]2(C(=O)O[C@@H]3O[C@H](CO)[C@@H](O)[C@H](O)[C@H]3O)CC[C@]3(C)C(=CCC4[C@@]5(C)C[C@@H](O)[C@@H]6OC(=O)c7cc(O)c(O)c(O)c7-c7c(cc(O)c(O)c7O)C(=O)OC[C@@]6(CO)C5CC[C@]43C)C2C1 (stereo partly specified) | 47 | 28 | 18 | 1.6 | 17 | 
5 | O=C(O)C1=C[C@@H](O)[C@@H](O)[C@H](OC(=O)c2cc(O)c(O)c(OC(=O)c3cc(O)c(O)c(O)c3)c2)C1 | 60 | 40 | 30 | 1.3 | 31 | 
6 | Oc1cc(O)c2c(c1)O[C@H](c1ccc(O)c(O)c1)[C@H](O)[C@H]2c1c(O)cc(O)c2c1O[C@H](c1ccc(O)c(O)c1)[C@H](O)C2 [PROCYANIDIN B2] | 40 | > 25 | > 25 |  | 21 | 
7 | O=C1OCC2OC(=O)c3cc(O)c(O)c(O)c3-c3c(O)c(O)c(O)c4c3C(=O)OC(C2OC(=O)c2cc(O)c(O)c(O)c2-c2c1cc(O)c(O)c2O)C1OC(=O)C2C4=C(O)C(=O)C23Oc2cc(O)c4c(c2[C@H]13)O[C@H](c1ccc(O)c(O)c1)[C@@H](O)C4 (stereo partly specified) | 89 | 15 | 4 | 3.8 | 23 | 
8 | O=C1O[C@H]2[C@@H]3OC(=O)c4cc(O)c(O)c(O)c4-c4c(cc(O)c(O)c4O)C(=O)OC[C@H]2O[C@@H](OC(=O)c2cc(O)c(O)c(O)c2)[C@@H]3OC(=O)c2cc(O)c(O)c3c2[C@@H]2C1=CC(=O)C(O)(O)C2(O)O3 (stereo partly specified) | 92 | 14 | 12 | 1.2 | 15 | 
9 | O=C(OC[C@H]1OC(O)[C@@](O)(COC(=O)c2cc(O)c(O)c(O)c2)[C@@H]1O)c1cc(O)c(O)c(O)c1 (stereo partly specified) [HAMAMELITANNIN] | 40 | 45 | 50 | 0.9 | 16 | 
10 | O=C(O[C@H]1[C@H](O)C[C@](OC(=O)c2cc(O)c(O)c(O)c2)(C(=O)O)C[C@H]1O)c1cc(O)c(O)c(O)c1 | 65 | 45 | 25 | 1.8 | 0 | 
11 | O=C(OC[C@H]1O[C@@H](OC(=O)c2cc(O)c(O)c(O)c2)[C@H](OC(=O)c2cc(O)c(O)c(O)c2)[C@@H](OC(=O)c2cc(O)c(O)c(O)c2)[C@@H]1OC(=O)c1cc(O)c(O)c(O)c1)c1cc(O)c(O)c(O)c1 (stereo in doubt; 10) |  |  |  |  | 2 | 
12 | O=C(O[C@@H]1O[C@@H]2COC(=O)c3cc(O)c(O)c(O)c3-c3c(cc(O)c(O)c3O)C(=O)O[C@H]([C@H]1O)[C@@H]2O)c1cc(O)c(O)c(O)c1 [CORILAGIN] | 90 | 15 | 15 | 1 | 57 | 
13 | O=C1OCC2OC(=O)c3cc(O)c(O)c(O)c3-c3c(O)c(O)c(O)c4c3C(=O)OC(C2OC(=O)c2cc(O)c(O)c(O)c2-c2c1cc(O)c(O)c2O)C1OC(=O)c2c-4c(O)c(O)c(O)c2[C@@H]1O (stereo partly specified) | 90 | 15 | 15 | 1 | 40 | 
14 | O=C(OC[C@@H]1O[C@@H](OC(=O)c2cc(O)c(O)c(O)c2)[C@@H](OC(=O)c2cc(O)c(O)c(O)c2)[C@@H](OC(=O)c2cc(O)c(O)c(O)c2)[C@@H]1OC(=O)c1cc(O)c(O)c(O)c1Oc1cc2c(c(O)c1O)-c1c(cc(O)c(O)c1O)C(=O)OC[C@@H]1O[C@@H](OC(=O)c3cc(O)c(O)c(O)c3)[C@@H](OC(=O)c3cc(O)c(O)c(O)c3)[C@@H](OC(=O)c3cc(O)c(O)c(O)c3)[C@@H]1OC2=O)c1cc(O)c(O)c(O)c1 | 50 | 39 | 12 | 3.3 | 0 | 
15 | Oc1cc(O)c2c(c1)O[C@@]1(c3ccc(O)c(O)c3)Oc3cc(O)c4c(c3[C@@H]2[C@H]1O)O[C@H](c1ccc(O)c(O)c1)[C@H](O)C4 [PROANTHOCYANIDIN A2] | 30 | > 25 | > 25 |  | 18 | 
16 | Oc1cc(O)c2c(c1)O[C@@]1(c3ccc(O)c(O)c3)Oc3cc(O)c4c(c3[C@@H]2[C@H]1O)O[C@H](c1ccc(O)c(O)c1)[C@H](O)[C@H]4c1c(O)cc(O)c2c1O[C@H](c1ccc(O)c(O)c1)[C@H](O)C2 [CINNAMTANNIN B1] | 90 | > 25 | 21 | > 1.2 | 13 | 
17 | O=C1c2c(O)cc(O)cc2O[C@H](c2ccc(O)c(O)c2)[C@H]1O [(+)-TAXIFOLIN] | 40 | 45 | 45 | 1 | 22 | 
18 | O=C(O[C@@H]1O[C@@H]2COC(=O)c3cc(O)c(O)c(O)c3-c3c(cc(O)c(O)c3O)C(=O)O[C@H]([C@H]1OC(=O)c1cc(O)c(O)c(O)c1)[C@@H]2OC(=O)c1cc(O)c(O)c(O)c1)c1cc(O)c(O)c(O)c1 [PUNICAFOLIN] | 60 | 34 | 19 | 1.8 | 0 | 
19 | O=C(O)C1=C[C@@H](O)[C@@H](O)[C@H](OC(=O)c2cc(O)c(O)c(O)c2)C1 | 90 | 25 | 18 | 1.4 | 0 | 
20 | O=C(O[C@@H]1[C@@H](c2c(O)cc(O)c3c2O[C@H](c2ccc(O)c(O)c2)[C@H](OC(=O)c2cc(O)c(O)c(O)c2)C3)c2c(O)cc(O)cc2O[C@@H]1c1ccc(O)c(O)c1)c1cc(O)c(O)c(O)c1 | 90 | > 25 | 14 |  | 0 | 
21 | O=C1O[C@H]2[C@H](O)[C@@H](OC(=O)c3cc(O)c(O)c4c3[C@@H]3C1=CC(=O)C(O)(O)C3(O)O4)[C@H](OC(=O)c1cc(O)c(O)c(O)c1)O[C@@H]2CO (stereo partly specified) [FUROSIN] | 33 | 70 | 50 | 1.4 | 38 | 
22 | CC1(C)CC[C@]2(C(=O)O)CC[C@]3(C)C(=CCC4[C@@]5(C)C[C@@H](O)[C@@H]6OC(=O)c7cc(O)c(O)c(O)c7-c7c(cc(O)c(O)c7O)C(=O)OC[C@@]6(CO)C5CC[C@]43C)C2C1 (stereo partly specified) | 23 | 40 | 40 | 1 | 18 | 
23 | Oc1cc(O)c2c(c1)O[C@H](c1ccc(O)c(O)c1)[C@H](O)[C@H]2c1c(O)cc(O)c2c1O[C@@]1(c3ccc(O)c(O)c3)Oc3cc(O)c4c(c3[C@@H]2[C@H]1O)O[C@H](c1ccc(O)c(O)c1)[C@H](O)[C@H]4c1c(O)cc(O)c2c1O[C@H](c1ccc(O)c(O)c1)[C@H](O)C2 [CINNAMTANNIN B2] | 73 | > 25 | 15 | > 1.7 | 19 | 
24 | O=C1OCC2OC(=O)c3cc(O)c(O)c(O)c3-c3c(O)c(O)c(O)c4c3C(=O)OC(C2OC(=O)c2cc(O)c(O)c(O)c2-c2c1cc(O)c(O)c2O)C1OC(=O)c2c-4c(O)c(O)c(O)c2[C@@H]1c1c(O)cc(O)c2c1O[C@H](c1ccc(O)c(O)c1)[C@@H](O)C2 (stereo partly specified) | 88 | 15 | 4 | 3.8 | 24 | 
25 | O=C(OC[C@H]1O[C@@H](OC(=O)c2cc(O)c(O)c(O)c2)[C@H](OC(=O)c2cc(O)c(O)c(O)c2)[C@@H](OC(=O)c2cc(O)c(O)c(O)c2)[C@@H]1OC(=O)c1cc(O)c(O)c(O)c1)c1cc(O)c(O)c(O)c1 (stereo in doubt; 11) |  |  |  |  | 0 | 
26 | O=C(OC[C@H]1O[C@@H](OC(=O)c2cc(O)c(O)c(O)c2)[C@H](OC(=O)c2cc(O)c(O)c(O)c2)[C@@H](OC(=O)c2cc(O)c(O)c(O)c2)[C@@H]1OC(=O)c1cc(O)c(O)c(O)c1)c1cc(O)c(O)c(O)c1 (stereo in doubt; 11) [PENTAGALLOYL GLUCOSE] | 65 |  | 18 | 2.5 |  | 45
27 | O=C(/C=C/c1ccc(O)c2c1[C@H](C(=O)O[C@H](Cc1ccc(O)c(O)c1)C(=O)O)[C@@H](c1ccc(O)c(O)c1)O2)O[C@H](Cc1ccc(O)c(O)c1)C(=O)O [MAGNESIUM LITHOSPERMATE B] | 35 | > 25 | > 25 |  | 18 | 
28 | O=C(O[C@@H]1Cc2c(O)cc(O)cc2O[C@@H]1c1ccc(O)c(O)c1)c1cc(O)c(O)c(O)c1 [EPICATECHIN GALLATE] | 40 | > 25 | > 25 |  | 5 | 
